The test system of this test is HCV 1b genotype replicon. The experiment in a line: Cell-based HCV replicon assay (qRT-PCR or luciferase), genotype 1b. As to conditions: Hepatitis C virus. As for the experimental part:
Cell-Based Replicon Assay
The anti-HCV activity of the compounds is determined using the cell-based replicon assay and the HCV replication assay described in US Publication No: 2010/0003214, incorporated herein by reference in its entirety.
HCV Replicon Assay—Luciferase
Since clinical drug resistance often develops in viral infections following single agent therapies, there is a need to assess the additive, antagonistic, or synergistic properties of combination therapies. We use the HCV replicon system to assess the potential use of the compound of the present invention or in combination therapies with Interferon alpha, cyclosporine analogs and inhibitors targeting other HCV proteins. The acute effects of a single or combinations of drugs are studied in the “Huh-luc/neo-ET” replicon with each chemical agent titrated in an X or Y direction in a 6 point two-fold dilution curve centered around the EC50 of each drug. […] Using this method, the combination data are analyzed for antagonistic, additive, or synergistic combination effects across the entire combination surface created by the diluted compounds in combination. […]
In general terms: A replicon is a self-replicating genome or part of one, used to study replication in cells.

SMILES strings stand for the structures.

Consider `O=C1N[C@H]2CCCCC/C=C\[C@@H]3C[C@@]3(C(=O)NS(=O)(=O)C3CC3)NC(=O)[C@@H]3C[C@H](CN3C2=O)Oc2nc3ccccc3nc2-c2cccc(c2)OCC(F)(F)CO1` [Example 2], for which the EC50 (in general, the concentration giving half of the maximal effect) is less than 1 nM.
With `CC1(C)CC/C=C/C(F)(F)c2nc3ccccc3nc2O[C@@H]2C[C@H]3C(=O)N[C@]4(C(=O)NS(=O)(=O)C5CC5)C[C@H]4/C=C\CCCCC[C@H](NC(=O)OC1)C(=O)N3C2` [Example 8], the EC50 is less than 1 nM.
